pIC50: −log10 of the molar value. Active and inactive are the calls of the source. The calls are words filed in the database; no cut-off is given here.
Legend:
[1] = biological target: Adenylate cyclase type 10 (Homo sapiens, UniProt Q96PN6); experiment: Inhibition of human recombinant soluble adenylyl cyclase
[2] = biological target: Adenylate cyclase (Homo sapiens) (UniProt Q8NFM4+O60503+Q08828+P40145+O60266+O95622+O43306+Q08462+P51828); experiment: Inhibition of forskolin-stimulated human transmembrane adenylyl cyclase activity in HEK293 cells at 100 uM; format: cell-based
[3] = biological target: Adenylate cyclase type 1 (Homo sapiens) (UniProt Q08828); experiment: Inhibition of forskolin-stimulated adenylyl cyclase 1 activity expressed in HEK293 cells at 100 uM; format: cell-based
Adenylate cyclase type 1 (Homo sapiens), sequence (Q08828 whole entry, looked up): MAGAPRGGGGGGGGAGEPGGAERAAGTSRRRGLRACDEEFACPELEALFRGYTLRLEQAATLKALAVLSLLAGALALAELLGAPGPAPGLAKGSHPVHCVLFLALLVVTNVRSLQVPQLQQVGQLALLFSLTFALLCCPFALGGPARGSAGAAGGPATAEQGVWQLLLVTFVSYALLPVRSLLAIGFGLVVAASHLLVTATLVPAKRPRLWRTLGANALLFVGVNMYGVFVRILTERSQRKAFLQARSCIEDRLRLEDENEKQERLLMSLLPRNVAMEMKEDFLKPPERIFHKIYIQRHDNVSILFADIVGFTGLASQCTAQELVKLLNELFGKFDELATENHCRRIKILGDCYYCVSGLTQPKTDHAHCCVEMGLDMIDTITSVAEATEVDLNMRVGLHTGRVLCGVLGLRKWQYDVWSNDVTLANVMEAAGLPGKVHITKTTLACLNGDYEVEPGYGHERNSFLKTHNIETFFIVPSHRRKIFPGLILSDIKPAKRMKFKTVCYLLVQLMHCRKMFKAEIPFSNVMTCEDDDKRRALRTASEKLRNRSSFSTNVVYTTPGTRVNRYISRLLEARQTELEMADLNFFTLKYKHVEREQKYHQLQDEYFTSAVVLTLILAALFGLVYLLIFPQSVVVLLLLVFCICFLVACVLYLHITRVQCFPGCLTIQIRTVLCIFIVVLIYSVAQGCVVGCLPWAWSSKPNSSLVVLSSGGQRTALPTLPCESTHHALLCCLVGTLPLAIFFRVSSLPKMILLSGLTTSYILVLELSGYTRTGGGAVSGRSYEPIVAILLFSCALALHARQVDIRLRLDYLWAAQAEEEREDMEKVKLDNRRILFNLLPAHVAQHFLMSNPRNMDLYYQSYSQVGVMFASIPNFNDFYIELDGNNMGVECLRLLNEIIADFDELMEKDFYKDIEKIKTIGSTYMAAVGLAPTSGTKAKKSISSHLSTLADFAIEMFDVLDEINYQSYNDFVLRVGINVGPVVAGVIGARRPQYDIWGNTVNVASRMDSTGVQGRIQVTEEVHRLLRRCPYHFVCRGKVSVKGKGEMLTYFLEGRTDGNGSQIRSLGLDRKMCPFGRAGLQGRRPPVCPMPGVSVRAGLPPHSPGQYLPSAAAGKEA

[4] = biological target: Adenylate cyclase type 2 (Homo sapiens) (UniProt Q08462); experiment: Inhibition of basal activity of adenylyl cyclase 2 expressed in HEK293 cells at 100 uM; format: cell-based
Adenylate cyclase type 2 (Homo sapiens), sequence (Q08462 whole entry): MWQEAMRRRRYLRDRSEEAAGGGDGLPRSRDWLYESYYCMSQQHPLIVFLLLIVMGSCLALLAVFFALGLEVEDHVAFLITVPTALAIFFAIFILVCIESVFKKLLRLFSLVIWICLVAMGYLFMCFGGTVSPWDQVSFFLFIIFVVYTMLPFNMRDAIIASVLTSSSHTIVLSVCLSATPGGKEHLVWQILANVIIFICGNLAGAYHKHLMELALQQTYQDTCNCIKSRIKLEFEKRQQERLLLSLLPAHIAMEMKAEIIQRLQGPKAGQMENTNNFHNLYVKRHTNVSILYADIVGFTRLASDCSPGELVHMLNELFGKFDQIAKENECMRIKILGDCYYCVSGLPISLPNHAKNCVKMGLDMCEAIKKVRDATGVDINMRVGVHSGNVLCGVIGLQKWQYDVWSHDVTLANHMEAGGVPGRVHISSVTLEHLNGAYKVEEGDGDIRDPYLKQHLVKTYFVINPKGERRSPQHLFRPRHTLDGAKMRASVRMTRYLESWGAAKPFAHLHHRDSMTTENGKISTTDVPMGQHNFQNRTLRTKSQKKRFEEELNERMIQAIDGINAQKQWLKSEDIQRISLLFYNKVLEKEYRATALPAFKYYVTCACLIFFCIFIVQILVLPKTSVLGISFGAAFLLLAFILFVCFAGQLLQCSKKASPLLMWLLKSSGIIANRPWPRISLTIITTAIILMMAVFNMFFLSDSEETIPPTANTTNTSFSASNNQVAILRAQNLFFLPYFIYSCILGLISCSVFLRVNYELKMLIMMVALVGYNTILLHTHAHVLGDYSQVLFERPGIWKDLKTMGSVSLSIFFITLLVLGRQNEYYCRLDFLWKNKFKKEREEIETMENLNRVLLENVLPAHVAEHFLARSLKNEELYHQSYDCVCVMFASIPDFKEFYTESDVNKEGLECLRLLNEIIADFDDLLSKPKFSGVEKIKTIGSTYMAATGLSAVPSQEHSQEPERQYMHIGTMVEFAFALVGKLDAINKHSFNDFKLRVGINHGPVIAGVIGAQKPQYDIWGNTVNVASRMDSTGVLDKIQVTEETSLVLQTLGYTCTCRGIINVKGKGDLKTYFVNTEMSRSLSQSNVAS

[5] = biological target: Adenylate cyclase type 5 (Homo sapiens) (UniProt O95622); experiment: Inhibition of forskolin-stimulated adenylyl cyclase 5 activity expressed in HEK293 cells at 100 uM; format: cell-based
Adenylate cyclase type 5 (Homo sapiens), sequence (O95622 whole entry, looked up): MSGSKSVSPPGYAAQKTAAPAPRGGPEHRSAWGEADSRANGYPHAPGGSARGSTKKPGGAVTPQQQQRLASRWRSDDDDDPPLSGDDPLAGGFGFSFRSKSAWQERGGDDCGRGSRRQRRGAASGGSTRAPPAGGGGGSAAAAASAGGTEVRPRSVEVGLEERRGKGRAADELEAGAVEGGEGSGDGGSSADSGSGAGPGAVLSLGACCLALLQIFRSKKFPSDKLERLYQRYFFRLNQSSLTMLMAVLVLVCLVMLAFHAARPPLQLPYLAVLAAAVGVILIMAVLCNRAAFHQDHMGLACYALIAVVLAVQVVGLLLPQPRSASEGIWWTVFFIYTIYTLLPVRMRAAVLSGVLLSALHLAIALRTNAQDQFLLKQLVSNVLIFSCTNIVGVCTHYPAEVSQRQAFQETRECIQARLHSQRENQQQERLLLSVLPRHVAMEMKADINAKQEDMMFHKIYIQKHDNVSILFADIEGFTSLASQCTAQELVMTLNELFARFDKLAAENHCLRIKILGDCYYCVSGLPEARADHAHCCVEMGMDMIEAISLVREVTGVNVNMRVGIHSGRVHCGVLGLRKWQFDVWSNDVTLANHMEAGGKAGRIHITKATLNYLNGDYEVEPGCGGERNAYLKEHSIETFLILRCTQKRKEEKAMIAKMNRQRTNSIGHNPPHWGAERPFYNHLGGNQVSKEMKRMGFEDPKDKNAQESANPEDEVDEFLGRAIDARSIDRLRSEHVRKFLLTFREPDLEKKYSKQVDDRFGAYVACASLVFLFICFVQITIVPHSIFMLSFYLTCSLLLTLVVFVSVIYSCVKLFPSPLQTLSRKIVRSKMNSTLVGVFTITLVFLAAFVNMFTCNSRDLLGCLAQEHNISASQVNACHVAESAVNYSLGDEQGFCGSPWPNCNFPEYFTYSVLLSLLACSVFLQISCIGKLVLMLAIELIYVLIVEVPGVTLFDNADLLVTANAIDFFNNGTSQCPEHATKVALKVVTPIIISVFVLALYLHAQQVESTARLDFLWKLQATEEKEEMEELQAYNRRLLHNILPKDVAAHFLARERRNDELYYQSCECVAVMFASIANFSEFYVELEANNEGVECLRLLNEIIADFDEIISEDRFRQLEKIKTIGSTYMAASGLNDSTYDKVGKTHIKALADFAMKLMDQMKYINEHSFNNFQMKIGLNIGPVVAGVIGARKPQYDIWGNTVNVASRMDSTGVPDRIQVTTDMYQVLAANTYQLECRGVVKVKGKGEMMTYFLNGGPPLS

[6] = biological target: T1, Adenylate cyclase type 9 (Homo sapiens) (UniProt O60503); experiment: Inhibition of basal activity of adenylyl cyclase 9 expressed in HEK293 cells at 100 uM; format: cell-based
T1 sequence (whole entry): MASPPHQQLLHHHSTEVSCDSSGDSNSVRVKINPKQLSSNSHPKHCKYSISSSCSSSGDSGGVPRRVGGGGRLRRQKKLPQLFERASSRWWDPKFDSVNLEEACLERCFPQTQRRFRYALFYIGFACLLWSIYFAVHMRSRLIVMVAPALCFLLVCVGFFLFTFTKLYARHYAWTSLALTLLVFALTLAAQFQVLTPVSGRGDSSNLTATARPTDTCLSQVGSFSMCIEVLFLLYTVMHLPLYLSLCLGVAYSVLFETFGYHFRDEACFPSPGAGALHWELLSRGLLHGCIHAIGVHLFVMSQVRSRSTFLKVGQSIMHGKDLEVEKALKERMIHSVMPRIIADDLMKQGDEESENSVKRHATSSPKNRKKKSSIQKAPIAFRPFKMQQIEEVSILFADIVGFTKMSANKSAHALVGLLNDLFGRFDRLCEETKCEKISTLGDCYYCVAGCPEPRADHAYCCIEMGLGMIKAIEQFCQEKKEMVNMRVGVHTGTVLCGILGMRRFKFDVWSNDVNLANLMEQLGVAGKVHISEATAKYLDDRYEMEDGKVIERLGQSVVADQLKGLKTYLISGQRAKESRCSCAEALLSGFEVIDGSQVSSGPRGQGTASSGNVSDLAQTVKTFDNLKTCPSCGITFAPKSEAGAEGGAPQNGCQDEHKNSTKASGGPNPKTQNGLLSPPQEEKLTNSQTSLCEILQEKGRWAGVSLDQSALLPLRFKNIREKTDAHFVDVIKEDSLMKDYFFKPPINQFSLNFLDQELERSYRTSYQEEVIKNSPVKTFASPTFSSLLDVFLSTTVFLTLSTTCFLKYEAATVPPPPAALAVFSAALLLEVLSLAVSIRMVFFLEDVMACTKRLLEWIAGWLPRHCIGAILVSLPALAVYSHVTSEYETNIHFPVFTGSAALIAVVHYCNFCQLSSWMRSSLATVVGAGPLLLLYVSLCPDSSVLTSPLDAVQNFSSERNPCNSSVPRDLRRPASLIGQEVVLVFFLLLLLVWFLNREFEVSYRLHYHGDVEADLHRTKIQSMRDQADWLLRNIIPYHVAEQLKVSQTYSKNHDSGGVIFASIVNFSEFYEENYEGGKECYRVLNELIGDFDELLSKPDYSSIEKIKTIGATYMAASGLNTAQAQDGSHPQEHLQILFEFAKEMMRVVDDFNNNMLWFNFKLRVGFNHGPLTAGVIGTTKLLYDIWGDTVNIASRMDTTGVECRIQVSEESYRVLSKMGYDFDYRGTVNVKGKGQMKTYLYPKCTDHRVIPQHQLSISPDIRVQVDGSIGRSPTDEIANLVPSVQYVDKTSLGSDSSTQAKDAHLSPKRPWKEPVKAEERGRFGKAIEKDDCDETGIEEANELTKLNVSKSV

Adenylate cyclase = biological target: T2, Adenylate cyclase (Arthrospira platensis, UniProt O32393); experiment: Inhibition of Spirulina platensis adenylyl cyclase assessed as cAMP level by cAMP immunogenic assay; set-up: species or system Limnospira platensis
T2 sequence (O32393 whole entry): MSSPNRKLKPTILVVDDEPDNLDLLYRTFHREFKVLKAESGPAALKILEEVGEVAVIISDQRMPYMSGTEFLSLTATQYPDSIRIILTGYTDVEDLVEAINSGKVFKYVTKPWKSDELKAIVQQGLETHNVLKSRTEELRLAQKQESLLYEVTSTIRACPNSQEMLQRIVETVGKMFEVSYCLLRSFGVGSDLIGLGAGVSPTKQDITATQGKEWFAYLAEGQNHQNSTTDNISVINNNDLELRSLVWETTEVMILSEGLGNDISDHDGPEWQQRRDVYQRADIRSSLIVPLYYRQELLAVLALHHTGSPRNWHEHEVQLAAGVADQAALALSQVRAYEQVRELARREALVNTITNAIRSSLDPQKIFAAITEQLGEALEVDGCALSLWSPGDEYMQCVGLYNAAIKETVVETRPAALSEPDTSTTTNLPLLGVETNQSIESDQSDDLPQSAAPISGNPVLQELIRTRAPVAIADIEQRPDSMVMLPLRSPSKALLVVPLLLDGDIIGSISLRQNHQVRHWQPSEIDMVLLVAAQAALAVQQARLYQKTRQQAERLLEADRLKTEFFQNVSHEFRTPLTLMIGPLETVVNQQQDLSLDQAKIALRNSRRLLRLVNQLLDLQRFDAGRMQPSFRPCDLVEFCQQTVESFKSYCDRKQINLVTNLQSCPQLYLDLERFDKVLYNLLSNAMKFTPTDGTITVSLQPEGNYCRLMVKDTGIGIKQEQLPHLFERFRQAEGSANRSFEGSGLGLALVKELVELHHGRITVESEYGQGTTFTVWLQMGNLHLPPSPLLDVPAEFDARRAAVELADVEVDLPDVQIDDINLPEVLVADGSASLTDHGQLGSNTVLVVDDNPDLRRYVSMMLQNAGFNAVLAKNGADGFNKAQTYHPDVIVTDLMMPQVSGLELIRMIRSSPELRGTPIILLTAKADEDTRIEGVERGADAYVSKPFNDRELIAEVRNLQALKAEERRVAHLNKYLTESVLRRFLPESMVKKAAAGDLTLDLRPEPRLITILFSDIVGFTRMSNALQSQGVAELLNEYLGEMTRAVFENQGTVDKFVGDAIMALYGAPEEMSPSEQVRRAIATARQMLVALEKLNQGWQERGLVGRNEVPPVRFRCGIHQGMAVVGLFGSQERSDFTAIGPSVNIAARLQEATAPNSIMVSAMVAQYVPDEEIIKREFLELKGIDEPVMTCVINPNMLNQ

[7] = biological target: Adenylate cyclase type 2 (Homo sapiens) (UniProt Q08462); experiment: Stimulation of basal activity of adenylyl cyclase 2 expressed in HEK293 cells at 100 uM in presence of forskolin; format: cell-based

Adenylate cyclase type 10, sequence (Q96PN6 whole entry): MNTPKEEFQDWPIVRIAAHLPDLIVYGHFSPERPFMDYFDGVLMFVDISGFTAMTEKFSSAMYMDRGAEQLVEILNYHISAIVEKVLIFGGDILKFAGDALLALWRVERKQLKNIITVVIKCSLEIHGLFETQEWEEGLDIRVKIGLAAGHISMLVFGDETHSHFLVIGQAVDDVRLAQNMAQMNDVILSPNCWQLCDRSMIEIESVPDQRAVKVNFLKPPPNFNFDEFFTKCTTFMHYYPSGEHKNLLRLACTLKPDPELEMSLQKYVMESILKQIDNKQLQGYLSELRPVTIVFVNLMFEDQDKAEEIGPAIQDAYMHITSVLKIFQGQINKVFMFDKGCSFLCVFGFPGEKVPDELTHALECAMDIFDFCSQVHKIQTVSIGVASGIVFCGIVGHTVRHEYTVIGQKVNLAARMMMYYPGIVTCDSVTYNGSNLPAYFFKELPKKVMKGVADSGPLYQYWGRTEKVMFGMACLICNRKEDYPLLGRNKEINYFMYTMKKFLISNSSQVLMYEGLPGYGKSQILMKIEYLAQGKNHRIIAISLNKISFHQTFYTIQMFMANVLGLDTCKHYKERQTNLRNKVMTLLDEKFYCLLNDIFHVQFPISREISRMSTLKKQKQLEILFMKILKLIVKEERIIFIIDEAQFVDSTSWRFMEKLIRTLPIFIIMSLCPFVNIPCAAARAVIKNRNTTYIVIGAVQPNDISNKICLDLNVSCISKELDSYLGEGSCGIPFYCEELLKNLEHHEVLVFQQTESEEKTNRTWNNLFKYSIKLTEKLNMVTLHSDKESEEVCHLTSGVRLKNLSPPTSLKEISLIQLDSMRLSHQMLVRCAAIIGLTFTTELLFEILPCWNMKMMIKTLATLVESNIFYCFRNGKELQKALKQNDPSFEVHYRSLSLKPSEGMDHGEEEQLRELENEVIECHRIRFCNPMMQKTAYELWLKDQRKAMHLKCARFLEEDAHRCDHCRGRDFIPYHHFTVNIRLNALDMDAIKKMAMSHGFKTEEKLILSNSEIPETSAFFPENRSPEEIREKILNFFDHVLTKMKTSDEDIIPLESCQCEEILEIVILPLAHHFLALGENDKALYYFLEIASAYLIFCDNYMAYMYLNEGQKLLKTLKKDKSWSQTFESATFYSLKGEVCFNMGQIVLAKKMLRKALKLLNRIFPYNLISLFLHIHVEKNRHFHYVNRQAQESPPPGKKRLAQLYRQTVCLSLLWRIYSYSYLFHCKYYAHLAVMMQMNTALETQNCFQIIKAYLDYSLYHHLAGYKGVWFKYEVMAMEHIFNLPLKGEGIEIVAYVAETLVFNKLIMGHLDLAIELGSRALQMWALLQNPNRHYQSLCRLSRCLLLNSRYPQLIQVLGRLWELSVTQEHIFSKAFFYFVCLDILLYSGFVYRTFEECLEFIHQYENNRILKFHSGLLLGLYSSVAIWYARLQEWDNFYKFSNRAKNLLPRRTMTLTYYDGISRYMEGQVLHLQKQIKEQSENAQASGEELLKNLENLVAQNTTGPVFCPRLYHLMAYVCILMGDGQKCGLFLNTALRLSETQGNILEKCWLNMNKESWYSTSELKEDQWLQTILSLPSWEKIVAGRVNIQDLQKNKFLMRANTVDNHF

| pIC50 (Adenylate cyclase) | SMILES | pIC50 [1] | Activity [2] | Activity [3] | Activity [4] | Activity [5] | Activity [6] | Activity [7] |
| --- | --- | --- | --- | --- | --- | --- | --- | --- |
|  | C[C@]12CC[C@H]3[C@@H](CCC4=CC(=O)CC[C@@]43C)[C@@H]1CC[C@@H]2C(=O)COS(=O)(=O)c1ccc(Br)cc1 | 5.96 | inactive | inactive | inactive | inactive | inactive |  |
| 3.70 | BrC(c1cccc2ccccc12)c1cccc2ccccc12 |  |  |  |  |  |  |  |
| 4.00 | C[C@H]1[C@H](C)CC[C@]2(C(=O)O)CC[C@]3(C)C(=CC[C@@H]4[C@@]5(C)C[C@@H](O)[C@H](O)[C@@](C)(CO)[C@@H]5[C@H](O)C[C@]43C)[C@H]12 [MADECASSIC ACID] |  |  |  |  |  |  |  |
|  | C[C@]12CC[C@@H]3c4cc(O)c(O)cc4CC[C@H]3[C@@H]1CC[C@@H]2O | 5.52 |  |  |  |  |  |  |
|  | O=C(O)c1cc2c(cc1S(=O)(=O)O)C1C(C3C2C2(Cl)C(Cl)=C(Cl)C3(Cl)C2(Cl)Cl)C2(Cl)C(Cl)=C(Cl)C1(Cl)C2(Cl)Cl (stereo unspecified) | 4.96 | Active | Active | Active | Active | Active | Active |

— ChEMBL document CHEMBL1155881, “Structure-based development of novel adenylyl cyclase inhibitors” (J Med Chem, 2008)
